# According to patent US7435587B2, “Apparatus for growing cells under variable hydrostatic pressures” (Memorial Sloan-Kettering Cancer Center, priority 2002, dated 2008):
# “Also recorded” adds a separate entry of the source.
# How the values were obtained:
# Format in all cases: cell-based, human
# HOS cells [1] = assay: Conventional 96-well chemosensitivity testing of HOS cells grown under pressure, de-pressurized, trypsinized and reattached 24 h (Alamar blue); details: tested at atmospheric pressure, p<0.05; for difference in the ED50 between cells grown at atmospheric pressure and those grown under 20 mmHg of pressure: HOS cells grown 72 h at 0 vs 20 mmHg, de-pressurized, difference is small
# Protocol: HOS cells were pressurized at 0 and 20 mmHg for 72 hours. At the end of this time point the growth membrane was removed and discs were created with a sterile punch. These discs bearing 2000 cells/disc were placed within each of the wells in a Costar 96-well plate (Bio-Rad, Hercules, Calif.). Serial dilutions of doxorubicin were immediately applied to the wells at a dose of 100 μg/ml to 0.00128 μg/ml. These were allowed an exposure time of 24 hours and then washed with PBS and 200 μl growth media replaced for a further 24 hours 25 μl of Alamar blue dye® (BioSource International, Camarillo, Calif.) was added for a further 8 hours and metabolic activity read with a Cytofluor® plate reader (Applied Biosystems, Foster City, Calif.). Metabolic activity was expressed as per manufacturer recommendations (BioSource International, Camarillo, Calif.). The experiment was repeated using cells grown at 72 hours under pressure, de-pressurized to atmospheric pressure and then trypsinized and seeded at 2000 cells per well and allowed 24 hours to gain attachment. They were then treated with doxorubicin. Assessment was completed as above. […] Student's t-test was used to assess for significance between the results of chemosensitivity at 0 and 20 mmHg. […] Each data point represents the mean of six readings with error bars representing the standard deviation.
# HOS cells [2] = assay: Chemosensitivity testing in a pressurized cassette-HPA system (in situ cell counts); details: for differences in growth between the pressurized and non-pressurized systems: 0 vs 20 mmHg, 72 h under pressure with drug, at 0.16 and 1 μ/ml; for difference in viability (cell counts under pressure) between 0 and 20 mmHg: testing under pressure, clinically relevant range of 0.04 to 4 μ/ml
# Protocol: To investigate chemosensitivity in a pressurized system, 1.5×10^4 HOS cells were seeded in 16 cassettes. These were incubated for 24 hours and baseline counts were made at the end of 24 hours. Serial dilutions of doxorubicin were added at a dose of 0 μg/ml, 0.16 μg/ml, 1 μg/ml and 8 μg/ml. […] Two sets were provided for each drug at 0 and 20 mmHg. Pressurization proceeded for 72 hours as described above. At the end of this time point, in situ cell growth over the identical 5 high power fields recorded after the first 24 hours were made. The observer was blinded to the identity of the sample being read. Cell growth was expressed as a ratio between the 72 hour and baseline 24 hour counts. This was then normalized to the readings for cells that were not exposed to chemotherapy (i.e. 0 μg/ml). This was done to account for cell growth changes that could result from the pressure effect itself. Student's T-test was used to assess for significance between the results of chemosensitivity at 0 and 20 mmHg. […] Each data point represents the mean of five readings with error bars representing the standard error of the mean.
# HOS cells [3] = assay: Chemosensitivity testing of membrane discs bearing pressurized HOS cells immediately exposed to drug in 96-well plate (Alamar blue); details: HOS cells grown under pressure 72 h, cut from membranes, 24 h drug exposure at atmospheric pressure, no 24 h de-pressurization
# Protocol: HOS cells were pressurized at 0 and 20 mmHg for 72 hours. At the end of this time point the growth membrane was removed and discs were created with a sterile punch. These discs bearing 2000 cells/disc were placed within each of the wells in a Costar 96-well plate (Bio-Rad, Hercules, Calif.). Serial dilutions of doxorubicin were immediately applied to the wells at a dose of 100 μg/ml to 0.00128 μg/ml. These were allowed an exposure time of 24 hours and then washed with PBS and 200 μl growth media replaced for a further 24 hours 25 μl of Alamar blue dye® (BioSource International, Camarillo, Calif.) was added for a further 8 hours and metabolic activity read with a Cytofluor® plate reader (Applied Biosystems, Foster City, Calif.). Metabolic activity was expressed as per manufacturer recommendations (BioSource International, Camarillo, Calif.).
Structure (SMILES),difference in the ED50 between cells grown at atmospheric pressure and those grown under 20 mmHg of pressure (HOS cells [1]),differences in growth between the pressurized and non-pressurized systems (HOS cells [2]),difference in viability (cell counts under pressure) between 0 and 20 mmHg (HOS cells [2]),"difference in cytotoxicity between cells grown at 0 and 20 mmHg (HOS cells [1]; depressurized HOS cells, drug concentration range 0.04 to 4 μg/ml)","difference in sensitivity between cells grown at 0 and 20 mmHg, membranes immediately exposed to drug (HOS cells [3])"
N.N.[Cl][Pt][Cl] [cisplatin],statistically significant difference,marked differences in growth,dramatic difference in viability,–,–
COc1cccc2c1C(=O)c1c(O)c3c(c(O)c1C2=O)C[C@@](O)(C(=O)CO)C[C@@H]3O[C@H]1C[C@H](N)[C@H](O)[C@H](C)O1 [doxorubicin],statistically significant difference,marked differences in growth,dramatic difference in viability,statistically significant difference in cytotoxicity,this difference became more pronounced; also recorded: dramatic differences to sensitivity
